According to patent publication US10258613B2, “Compositions for treating retinal degeneration and methods of production and use thereof” (The Board of Regents of the University of Oklahoma, priority 2014, dated 2019):
“Also recorded” adds a separate entry of the source.

How the values were obtained:
[1] = system: cones in Rpe65−/− mice; assay: Cone density after intravitreal injection of TR antagonists; type: in vivo, mouse; conditions: for cone death, in words: intravitreal delivery; for cone density increase: intravitreal injection at P5 (1.0 μl of 5 mM NH-3 or 10 mM 1-850), collected P24; for cone protection, in words: intravitreal injection at P5, P24, PNA staining
Protocol: The cornea and lens were then removed, and the eyes were fixed in 4% PFA in PBS (vol/vol) at room temperature for another 4-6 hours. […] Paraffin sections (5 μm thickness) passing vertically through the retina (along the vertical meridian passing through the optic nerve head) were prepared using a Leica microtome.
Briefly, retinal whole mounts or sections were blocked in Hank's balanced salt solution containing 5% bovine serum albumin (BSA) and 0.5% Triton-X 100 for 1 hour at room temperature. Primary antibody incubation (anti-M-opsin, 1:500; anti-S-opsin, 1:500; anti-CAR, 1:500; and anti-GNAT2, 1:500) was performed at room temperature for 1 hour. […] PNA immunohistochemistry was performed using biotinylated PNA (1:50) and streptavidin-FITC (1:200). […] For retinal whole mounts, images were taken using a 40× objective on an Olympus microscope, approximately 1.0 mm from the optic nerve in the center of each quadrant (FIG. 1). […] Cone density on retinal cross section was evaluated by counting the number of cones present in the dorsal and ventral areas. The averages of the counts were analyzed and graphed using GraphPad Prism software (GraphPad Software, San Diego, Calif.).
(§1) The cone precursor Weri RB-1 cell line was used to determine the antagonistic activity of the TR antagonists, NH-3 and 1-850. Expression levels of M-opsin and S-opsin in Weri cells following T3 treatment in the presence and absence of TR antagonists were analyzed by quantitative RT-PCR. […] NH-3, 1-850, or vehicle was delivered to the eye by intravitreal injection at postnatal day 5 (P5), and retinas and eyes were collected on P24. Cone survival was evaluated by examining cone density on retinal whole mounts and retinal sections by immunohistochemical approaches.

[2] = system: Weri RB-1 cell line; assay: M-opsin and S-opsin expression (quantitative RT-PCR) after T3 with or without TR antagonists; type: cell-based; conditions: Weri cells; for inhibition of T3-induced M-opsin expression / inhibition of the effects of T3 treatment on M-opsin and S-opsin expression: dose-dependent pattern
Protocol: as §1

[3] = system: cones in Cngb3−/− mice; assay: Cone density by immunofluorescence labeling after T3 treatment; type: in vivo, mouse
Protocol: (§2) For anti-thyroid treatment, mother Rpe65^−/− and cpfl1 mice were treated with methimazole (MMI) (Sigma-Aldrich, St. Louis, Mo., 0.05% wt/vol) and sodium perchlorate monohydrate (PM) (Sigma-Aldrich, 1.0% wt/vol) in drinking water, beginning on the day they delivered pups and the treatment (for both mother and pups) continued for 30 days. In a separate experiment, post-weaning cpfl1 mice received MMI and PM treatment for 30 days, beginning on P25. For T3 treatment, Cngb3^−/− and Gucy2e^−/− mice received T3 (Sigma-Aldrich, 0.1 μg/g body weight, subcutaneous injection once each day) or vehicle (saline) for 30 days, beginning on P1. At the end of the treatments, blood samples were collected for measurements of serum T3 levels, and eyes and retinas were collected for evaluating cone density and cone specific protein/mRNA expression. For T3-treated mice, blood samples were collected around 24 hours after the last injection.
(§3) Mouse retinal whole mounts or cross sections were prepared for immunohistochemical analysis as described previously (Ding et al., 2009; and Xu et al., 2011). […] The cornea and lens were then removed, and the eyes were fixed in 4% PFA in PBS (vol/vol) at room temperature for another 4-6 hours. […] Paraffin sections (5 μm thickness) passing vertically through the retina (along the vertical meridian passing through the optic nerve head) were prepared using a Leica microtome.
(§4) Immunohistochemical labeling of cones using antibodies against peanut agglutinin (PNA), cone opsin, cone arrestin (CAR), and guanine nucleotide-binding protein G(t) subunit alpha-2 (GNAT2) was performed as described previously (Ding et al., 2009). Briefly, retinal whole mounts or sections were blocked in Hank's balanced salt solution containing 5% bovine serum albumin (BSA) and 0.5% Triton-X 100 for 1 hour at room temperature. Primary antibody incubation (anti-M-opsin, 1:500; anti-S-opsin, 1:500; anti-CAR, 1:500; and anti-GNAT2, 1:500) was performed at room temperature for 1 hour. Following ALEXA FLUOR®-488 or -568 (Molecular Probes, Inc., Eugene, Oreg.) or FITC-conjugated secondary antibody incubation and rinses, slides were mounted and cover-slipped. PNA immunohistochemistry was performed using biotinylated PNA (1:50) and streptavidin-FITC (1:200). Fluorescent signals were imaged using an Olympus AX70 fluorescence microscope (Olympus Corp., Center Valley, Pa.) with QCapture imaging software (QImaging Corp., Surrey, BC, Canada) or an Olympus IX81-FV500 confocal laser scanning microscope (Olympus, Melville, N.Y.) (using excitation wavelengths of 543 nm for ALEXA FLUOR®-568 and 488 nm for FITC) and FLUOVIEW® imaging software (Olympus, Melville, N.Y.). Evaluation of cone density on retinal whole mounts and retinal cross-sections was performed as described previously (Xu et al., 2011; and Komeima et al., 2006). For retinal whole mounts, images were taken using a 40× objective on an Olympus microscope, approximately 1.0 mm from the optic nerve in the center of each quadrant (FIG. 1). Image scale was calibrated and cones were counted in four regions, each with dimensions of 317 μm×317 μm, using ImageJ software (ImageJ software website from National Institutes of Health, Bethesda, Md.). Cone density on retinal cross section was evaluated by counting the number of cones present in the dorsal and ventral areas. The averages of the counts were analyzed and graphed using GraphPad Prism software (GraphPad Software, San Diego, Calif.).

[4] = system: cones in Gucy2e−/− mice; assay: as above; type: in vivo, mouse
Protocol: as §2, §3, §4

[5] = system: rod photoreceptors in Gucy2e−/− mice; assay: Retinal morphometric analysis (ONL nuclei count, ONL thickness) after T3 treatment; type: in vivo, mouse
Protocol: as §2, §3
(§5) Retina cross sections labeled with DAPI (Vector Laboratory Inc., Burlingame, Calif.) were used for morphometric analysis to evaluate outer nuclear layer (ONL) integrity/rod survival as described previously (Xu et al., 2012). In each hemisphere, the number of nuclei in the ONL and the thickness of the ONL were measured at 0.24 mm intervals in nine defined areas, starting at the optic nerve head and extending along the vertical meridian toward the dorsal and ventral ora serrata. The mean number of nuclei and ONL thickness at the dorsal and ventral locations was then calculated. In each experimental group, two-three sections from each of the retinas of three-four mice were measured. The averages of the measurements in each location were plotted, and the measurements in each hemisphere were analyzed and graphed using GraphPad Prism software (GraphPad Software, San Diego, Calif.).

[6] = system: rod photoreceptors in Cngb3−/− mice; assay: as above; type: in vivo, mouse
Protocol: as §2, §3, §5

[7] = Serum T3 levels by mouse/rat T3 ELISA in anti-thyroid- or T3-treated mice; type: in vivo; conditions: for increase of serum T3 levels compared with untreated controls: around 24 hours after last injection; for concentration at 24 h: mouse, serum, sc, 0.1 μg/g body weight, T3 0.1 μg/g s.c. once each day 30 days from P1, around 24 hours after last injection
Protocol: as §2
Serum triiodothyronine (T3) levels were analyzed using a mouse/rat T3 ELISA kit (Calbiotech Inc., Spring Valley, Calif.) with a total T3 detection limit at 0.25 ng/ml. Briefly, 25 μl of serum samples and standards with different T3 concentrations were added into the assigned wells, the assays were performed by following the manufacturer's instructions, and the absorbance of each well was read at 450 nm (SPECTRAMAX® 190 Microplate Spectrophotometer, Molecular Devices LLC, Sunnyvale, Calif.). The standard curve was generated by using a three-parameter exponential non-linear regression in SIGMAPLOT® software (Systat Software, Inc., San Jose, Calif.), and the sample T3 concentration was then calculated according to the three-parameter exponential equation.

[8] = system: cones; conditions: mice; effect reversed by deletion of TRβ2 gene; cited from earlier work
[9] = T3 0.1 μg/g s.c. daily 30 days from P1

O=C(C=C1CCN(c2ccc([N+](=O)[O-])cc2)CC1)NNC(=O)Nc1cccc(C(F)(F)F)c1 [1-850]
cone death, in words [1]: reduced cone death | cone density increase [1]: about 35% | cone protection, in words [1]: protected cones | inhibition of T3-induced M-opsin expression [2]: inhibited T3-induced M-opsin expression | inhibition of the effects of T3 treatment on M-opsin and S-opsin expression [2]: inhibited

Cc1cc(OCC(=O)O)cc(C)c1Cc1cc(C#Cc2ccc([N+](=O)[O-])cc2)c(O)c(C(C)C)c1 [NH-3]
cone death, in words [1]: reduced cone death | cone density increase [1]: about 35% | cone protection, in words [1]: protected cones | inhibition of T3-induced M-opsin expression [2]: inhibited T3-induced M-opsin expression | inhibition of the effects of T3 treatment on M-opsin and S-opsin expression [2]: inhibited

N[C@@H](Cc1cc(I)c(Oc2ccc(O)c(I)c2)c(I)c1)C(=O)O [T3, Triiodothyronine]
reduction of CAR-labeled cones vs untreated [3, 9]: about 40% | reduction of PNA-labeled cones vs untreated [3, 9]: about 30% | M-opsin labeled-cones vs untreated controls ([3]; T3 30 days from P1): greatly reduced | S-opsin labeled-cones vs untreated controls ([3]; T3 30 days from P1): greatly reduced | cone degeneration / cone density, in words ([3]; T3 30 days from P1): significantly increased; also recorded: significantly reduced; also recorded: deteriorated cones | cone density decrease ([3]; summary statement): about 40% | reduction of density of cones labeled by CAR vs untreated controls [4, 9]: about 30% | reduction of density of cones labeled by PNA vs untreated controls [4, 9]: about 30% | reduction of density of cones labeled by cone opsin vs untreated controls [4, 9]: about 30% | cone degeneration / cone density, in words ([4]; T3 30 days from P1): significantly increased; also recorded: significantly diminished cone density; also recorded: deteriorated cones | cone density decrease ([4]; summary statement): about 40% | reduction of average number of nuclei in the ONL vs untreated controls ([5]; T3 30 days): about 30% | rod photoreceptor viability, in words ([5]; T3 30 days from P1): causes rod degeneration | reduction of average number of nuclei in the ONL vs untreated controls ([6]; T3 30 days): about 30% | rod photoreceptor viability, in words ([6]; T3 30 days from P1): causes rod degeneration | increase of serum T3 levels compared with untreated controls ([7]; Cngb3−/− mice): about 8 fold | increase of serum T3 levels compared with untreated controls ([7]; Gucy2e−/− mice): about 6 fold | concentration at 24 h ([7]; Cngb3−/− mice): 3.85 ± 0.55 nM | concentration at 24 h ([7]; Gucy2e−/− mice): 3.43 ± 0.48 nM | cone viability [8]: cause cone death | M-opsin expression ([2]; T3 treatment): increased M-opsin expression | S-opsin expression ([2]; T3 treatment): decreased S-opsin expression
